EP1079849B1, “USE OF HMG PROTEINS FOR THE PREPARATION OF MEDICAMENTS HAVING CYTOTOXIC ACTIVITY” (Istituto Di Ricerche " Giorgio Sisini", priority 1998, dated 2002)

Test system: tumors
Experiment: DMBA-induced tumor growth in rats
Settings: female rats with DMBA-induced tumors; control = saline solution; result in words

Peptide 1-19: peptide 1-19 of HMG-I, commercially available from Santa Cruz Biotechnology, Santa Cruz, CA, USA (MSESSSKSSQPLASKQEKD; UniProt P17096 1-19, looked up, fragment)
tumor growth in comparison to the control: clearly slow down the tumor growth
